Assay results: patent publication US7732420B2, “Combinations of transfection lipids exhibiting increased transfection efficiencies” (Northwestern University, priority 2003, dated 2010)

Experiments:
[1] = tested on: human umbilical artery endothelial cells (HUAECs); assay: Transfection of HUAEC with lipoplexes, β-galactosidase expression; format: cell-based; conditions: lipid used individually
Experimental: The cells were seeded in 96-well plates at 24 hours before transfection at densities to give about 80% confluence at the time of transfection. Chloroform solutions of EDLPC with EDOPC and EDLPC with EDMPC were mixed at the different ratios and then chloroform was removed under N2 stream and vacuum. The lipid mixtures were hydrated in HBSS at 1 mg/ml to form liposomes. Liposomes and plasmid DNA were diluted in OptiMEM to 80 μg/ml for lipid and to 20 μg/ml for DNA, and liposomes were pipetted into an equal volume of plasmid DNA solution at a 4:1 weight ratio and mixed gently. The resultant DNA (plasmid with β-galactosidase marker gene)—lipid complexes were incubated at room temperature for 15 min and then added to the cells that were either in medium lacking serum (black bars) or medium containing 5% serum (gray bars). The lipoplexes had 35% (lipoid) excess positive over negative (DNA) charge. Cells were assayed for β-galactosidase expression 24 hours after transfection. Data represent the mean±S.D. of a representative experiment performed in quadruplicate. ˜20,000 fluorescence units corresponded approximately to 0.1 milliunit of β-galactosidase.
Cells were treated with DNA-lipid complex for 2 h in the absence (“no serum”) or presence of serum (“serum”) and then washed with HBSS and supplemented with fresh culture medium. Data represent the mean±S.D. of a representative experiment performed in quadruplicate.
Cells were treated with DNA-lipid complex for 2 h in the absence (“no serum”) or presence of 5% normal serum (“normal serum”) or 5% delipidated serum (“delipidated serum”) and then washed with HBSS and supplemented with fresh regular culture medium. Data represent the mean±S.D. of a representative experiment performed in quadruplicate.
Conditions were identical with those described in FIG. 1 except that different lipoid mixtures were used. Ditetradecyldimethyammonium (di C 14 substituted quaternary ammonium) was mixed with dioctadecylammonium (di C 18 quaternary ammonium).

[2] = tested on: HUAECs; assay: Intracellular distribution of fluorescent lipid and oligonucleotide of lipoplexes; format: cell-based, human
Experimental: Lipoplexes were labeled with a fluoresce in derivative of a double-stranded dodecameric oligonucleotide. Cells were incubated with the resulting lipoplexes in the presence of serum for 2 h and imaged under a fluorescence microscope at 2 h later after being washed with HBSS.
In order to determine if this pattern of fusion is also observed within cells (e.g., the mixture is more prone to fuse with endosomal membranes facilitating escape of DNA from endosomal degradation and nuclei entrance) the intracellular distribution of fluorescent lipid and oligonucleotide in EDOPC and EDLPC/EDOPC (60/40) lipoplexes was investigated. […] Lipoplexes were labeled with a fluorescein derivative of a double-stranded dodecameric oligonucleotide. Cells were incubated with the resulting lipoplexes in the presence of serum for 2 h and imaged under a fluorescence microscope after being washed in HBSS. […] Similar images were obtained with fluorescent plasmid DNA, although the fluorescence of the nucleus was less intense.

CCCCCCCCCCCC(=O)OC[C@H](COP(=O)(OCC)OCC[N+](C)(C)C)OC(=O)CCCCCCCCCCC (some centres unmarked) [EDLPC, 1,2-dilauroyl-sn-glycero-3-ethylphosphocholine]
transfection activity of the individual lipid [1]: quite weak transfection reagents

CCCCCCCCCCCCCC(=O)OC[C@H](COP(=O)(OCC)OCC[N+](C)(C)C)OC(=O)CCCCCCCCCCCCC (some centres unmarked) [EDMPC, 1,2-dimyristol-sn-glycero-3-ethylphosphocholine]
transfection activity of the individual lipid [1]: quite weak transfection reagents

CCCCCCCC/C=C\CCCCCCCC(=O)OC[C@@H](COP(=O)(OCC)OCC[N+](C)(C)C)OC(=O)CCCCCCC/C=C\CCCCCCCC (some centres unmarked) [EDOPC, 1,2-dioleoyl-sn-glycero-3-ethylphosphocholine]
transfection activity of the individual lipid [1]: quite weak transfection reagents
intracellular distribution of lipid ([2]; fluorescent lipid in lipoplexes): remained in the cytoplasm for at least 20 hours
intracellular distribution of oligonucleotide ([2]; fluorescent oligonucleotide in lipoplexes, in the presence of serum): remained in the cytoplasm for at least 20 hours
